According to patent US8623908B2, “Use of tellurium compounds for inhibition of interleukin-converting enzyme” (Biomas Ltd., priority 2004, dated 2014):
Where two headings read alike, the source gives them in different places.

Columns and labels:
[1] = system: IL-18 secretion by human PBMC; assay: Role of IFN-γ: IL-18 inhibition in PBMC with IFN-γ neutralizing antibody; format: cell-based; settings: anti IFN-γ antibody 0.1 μg/ml 2 hours before AS101 0.5 μg/ml; SAC; 24 hours; FIG. 6
Protocol: (§1) The R&D Systems (Minneapolis, Minn.) IL-18 and IL-1β ELISA kits were used for the quantitative measurement of these cytokines either in supernatants or in mice sera.
In order to investigate the possibility that enhancement of IFN-γ levels by AS101 might have a synergistic effect on IL-18 inhibition, rhIFN-γ neutralizing antibody (0.1 μg/ml) was delivered to PBMC (2.5×10^6 cells/ml) 2 hours before AS101 (0.5 μg/ml). SAC (10^−3 v/v) was added 1 hour following AS101. Supernatants were collected after 24 hours and evaluated for IL-18 levels.

[2] = system: IL-18 secretion by human PBMC; assay: SAC-induced secretion of IL-18 by PBMC (ELISA); format: cell-based
Protocol: (§2) Human peripheral blood mononuclear cells (PBMC) were isolated from randomly selected healthy donors by Ficoll-Hypaque (Pharmacia, Piscataway, N.J.) density-gradient centrifugation. PBMC were adjusted to 2.5×10^6 cells/ml and cultured in enriched RPMI 1640 medium (Biological industries, Kibbutz Beit Haemek, Israel) with 10% FCS (Biological industries) at 37° C. and 7% CO2.
(§3) Cells were first treated with various concentrations of AS101 and after 1 hour SAC was added. After 24 hours, supernatants were collected and evaluated for cytokine content. Viability at the end of these experiments, as assessed by tryptan blue exclusion method, was always found to be >95%.
as §1
(§4) PBMC (2.5×10^6 cells/ml) were treated with various concentrations of AS101 and after 1 hour were stimulated with SAC (10^−3 V/V). Results represent means±SE of three experiments **p<0.05 decrease vs SAC; *p<0.01 decrease vs SAC. Optimal concentration of SAC for cytokine secretion stimulation was 10^−3 v/v (data not shown).

[3] = rats, cited from earlier work
cysteine proteases = settings: via a catalytic thiol oxidation; Inorg. Chem. 37: 1704-1712, 1998; cited from earlier work
IL-1β = IL-1β levels in LPS-induced septic mice; format: in vivo, c57BL/6J mice; settings: 24 hours after LPS, FIG. 7b
Protocol: (§5) For serum cytokine evaluation, PBS or AS101 was injected intraperitoneally (i.p.) 2 hours following LPS treatment. For survival experiments AS101 was injected i.p. daily at various concentrations starting 1 hour and up to 24 hours following LPS until the end of the experiment.
as §1
(§6) PBS (control) and AS101 at various concentrations were injected into c57BL/6J mice 2 hours following induction of sepsis by LPS (0.5 mg/mouse) treatment. 24 hours after LPS injection, mice were sacrificed and evaluated for plasma concentration of these cytokines in order to determine whether AS101 can inhibit production of IL-18 and IL-1β in vivo.

[4] = system: IL-1β secretion by human PBMC; assay: SAC-induced secretion of IL-1β by PBMC (ELISA); format: cell-based
Protocol: as §2, §3, §1, §4

[5] = system: active form of IL-18 in human HaCat keratinocytes; assay: Western blot of intracellular active form of IL-18 in HaCat keratinocytes; format: cell-based; settings: AS101 1 μg/ml preincubated 2 hours, FIG. 3
Protocol: Human HaCat keratinocytes were adjusted to 1×10^6 cells/ml and cultured at 37° C. and 7% CO2 in enriched Dulbecco's modified Eagle's medium (DMEM)(Biological industries, Kibbutz Beit Haemek, Israel), supplemented with 10% FCS (Biological industries).
Total cell extracts were prepared by suspension in ice-cold lysis buffer containing 50 mM Tris (pH 8.0), 150 mM NaCl, 1% NP-40, 0.1% SDS, 5 mM EDTA, 0.2 mM PMSF, 50 mM NaF, […] sodium vanadate, […]. Cell lysates were boiled for 5 min and electrophoresed on 15% SDS-PAGE and were then blotted with monoclonal IL-18 antibodies (R&D Systems, Minneapolis, Minn.). Blots were developed using horseradish peroxidase-conjugated secondary antibodies and the ECL detection system (Amersham Pharmacia Biotech).
IL-18 is […] produced by keratinocytes after treatment with LPS or PMA. In order to determine whether the inhibitory effect of AS101 on the formation of the active form of IL-18 is consistent and will repeat itself in another type of cell culture, Western Blot analysis of total cellular proteins from human HaCat keratinocytes was performed using anti-IL-18 antibodies. […]
Cultured keratinocytes (1×10^6 cells/ml) were preincubated for 2 hours with AS101 (1 μg/ml) and then treated with PMA or LPS. Expression of IL-18 was assessed by WB analysis while α-tubulin was used as internal control. […]

[6] = system: human HaCat keratinocytes; assay: IL-18 production in HaCat keratinocytes after AS101 treatment alone; format: cell-based
Protocol: IL-18 production has a self-regulating negative feedback loop. This cytokine can down regulate its own production by inducing the production of a native inhibitor, IL-18BP, through an IFN-γ dependent mechanism. Since AS101 has been previously shown to increase IFN-γ due to the direct inhibition of the […], studies were carried out to determine whether the inhibitory effect of AS101 results from induction of IL-18BP directly and/or whether neutralization of IFN-γ would abrogate the inhibitory effect of AS101 on IL-18.

PBMC = assay: Viability of treated cells by trypan blue exclusion; format: cell-based, human; settings: cells treated with various concentrations of AS101, SAC, 24 hours
Protocol: as §3

[7] = system: IL-18 mRNA in human HaCat keratinocytes; assay: IL-18 mRNA levels in HaCat cells (RT-PCR); format: cell-based; settings: AS101 1 μg/ml preincubated 2 hours, FIG. 4b
Protocol: Total RNA was prepared from treated or non treated human keratinocytes by using Tri-reagent (Sigma Aldrich, Rehovot, Israel). Oligo(dt) primed cDNA was synthesized using 2 μg of total RNA. mRNA/cDNA specific cytokine primer pairs were designed and PCR was performed using the following primer pairs (5 μM each): IL-18 (product 558 bp): 178-201 [5′-[…]-3′], 735-759 [5′-[…]-3′]. Cycling conditions were 95° C., 4 minutes; 94° C., 1 minute, 65° C., 1 minute; and 72° C., 1 minute for 29 cycles. GPDH (glyceraldehyde-phosphate-dehydrogenase, product 500 bp) was used as a control: [5′-[…]-3′],[5′-[…]-3′]. The amplified products were visualized using ethidium bromide staining.
Changes at the IL-18 mRNA level were studied when keratinocytes were pretreated with AS101 (1 μg/ml) using optimal concentrations of PMA (10 ng/ml) and LPS (50 ng/ml). Total RNA was isolated from whole cell lysates. GAPDH was used as internal control. Cultured keratinocytes (1×10^6 cells/ml) were either untreated or treated with PMA at 5 ng/ml and 10 ng/ml (line 2 and 3 respectively) and with LPS at 40 ng/ml and 50 ng/ml (line 4 and 5 respectively).
PCR products were amplified for 29 cycles.

serine proteases = settings: Inorg. Chem. 37: 1704-1712, 1998; cited from earlier work
aspartic proteases = settings: Inorg. Chem. 37: 1704-1712, 1998; cited from earlier work
metallo proteases = settings: Inorg. Chem. 37: 1704-1712, 1998; cited from earlier work
LPS-induced septic mice = assay: Survival of LPS-induced septic mice; format: in vivo
Protocol: as §5
Data are presented as mean±SE. For comparisons of means of the various groups, the pairwise t test was used. Survival curves were statistically analyzed by comparing the cumulative percentage of survival using the Gehan-Wilcoxon test.
In order to study the relationship between the above in vitro and in vivo results and the effect of AS101 on survival of mice following induction of sepsis, AS101 at a concentration of 10 μg/mouse was injected into LPS-induced septic mice at various time points after LPS (0.35 mg/mouse) treatment. Survival was monitored for 9 days.

IL-18 = IL-18 levels in LPS-induced septic mice; format: in vivo, c57BL/6J mice; settings: 24 hours after LPS, FIG. 7a
Protocol: as §5, §1, §6

[8] = system: IL-18 secretion by human PBMC; assay: Role of nitric oxide: IL-18 inhibition in PBMC with L-NAME; format: cell-based; settings: L-NAME 20 nM 2 hours before AS101 0.5 μg/ml; SAC; 24 hours; FIG. 5
Protocol: as §1
L-NAME/D-NAME (20 nM) were delivered to PBMC (2.5×10^6 cells/ml)2 hours before AS101 (0.5 μg/ml). SAC (10^−3 v/v) was added 1 hour following AS101. Supernatants were collected after 24 hours and evaluated for IL-18 levels.

[9] = molecular target: T1, caspase-1 (ICE-Interleukin-β-converting enzyme), rCaspase-1 (Homo sapiens, UniProt P29466); assay: Caspase-1 activity enzymatic assay with colorimetric substrate Ac-YVAD-pNA; format: biochemical; settings: AS101 2.5, 5, 10 μM; 1 hour, 30° C., 405 nm; FIG. 1
T1 construct: purchased Biomol International Industries L.P. Canada
T1 sequence (P29466 120-297 limits assumed): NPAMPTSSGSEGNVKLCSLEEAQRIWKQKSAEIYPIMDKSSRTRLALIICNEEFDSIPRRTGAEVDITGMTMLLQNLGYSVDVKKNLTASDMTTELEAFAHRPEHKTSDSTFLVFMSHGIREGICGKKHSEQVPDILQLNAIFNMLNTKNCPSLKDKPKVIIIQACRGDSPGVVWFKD
T1 sequence (P29466 317-404 limits assumed): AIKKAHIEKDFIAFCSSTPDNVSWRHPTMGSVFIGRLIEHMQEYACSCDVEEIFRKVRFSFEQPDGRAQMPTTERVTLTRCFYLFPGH
Protocol: DTT, which is present in the commercial enzyme solution, interacts with AS101 and thus would interfere with the inhibition studies. Therefore removal of DTT from the enzyme solution prior to the enzymatic assay was necessary. Gel permeation chromatography was carried out at 4° C. 50 μl solution of commercial activated rCaspase-1 was loaded on a 1×15 cm Sephadex G-15 column (Pharmacia), preequilibrated with assay buffer containing: 50 mM Hepes, 100 mM NaCl, 0.1% CHAPS, 1 mM EDTA, 10% Glycerol at pH 7.4. The enzyme was eluted with the same buffer (degassed) at 0.5 ml/minute and 500 μl fractions were collected. The enzyme-substrate reaction was measured continuously with 1 min. intervals for a total time of 1 hour at 30° C. and was read at 405 nm. The total volume of the reaction was 100 μl and contained as following: 50 μl rCaspase-1 (0.8 U/μl), 25 μl colorimetric substrate (Ac-YVAD-pNA, 200 μM), 25 μl of AS101 at various concentrations (2.5 μM, 5 μM, 10 μM) in assay buffer.
AS101 was tested for its possible inhibitory activity towards a member of the cysteine protease family, caspase-1 (ICE-Interleukin-β-converting enzyme). The enzymatic reaction was carried out with caspase-1 specific colorimetric substrate, Ac-YVAD-pNA, and in the absence or the presence of AS101 at different concentrations. The enzyme activity was tested for 1 hour and measured at 405 nm. […]

[10] = AS101 5 μg/mouse i.p. 2 hours after LPS 0.5 mg/mouse
[11] = AS101 10 μg/mouse i.p. 2 hours after LPS 0.5 mg/mouse

Q: With `Cl[TeH]1(Cl)(Cl)OCCO1` [AS101, ammonium trichloro(dioxyethylene-O,O′)tellurate] as the compound, how does the “IL-18 inhibition after neutralization of IFN-γ” value [1] read?
A: does not abrogate IL-18 inhibition

Q: And the “SAC-induced secretion levels of IL-18” value ([2]; AS101 1 hour before SAC 10^-3 v/v, after 24 hours, FIG. 2a)?
A: decrease SAC-induced secretion levels

Q: What about the “concentration from which the decrease in IL-18 secretion is significant (p<0.05)” value ([2]; SAC, 24 hours) of the same compound?
A: ≥ 0.5 µg/mL

Q: What about the “LD50 relative to the immunologically effective dose” value ([3]; intramuscular administration) of the same compound?
A: 500-1000 folds

Q: What about the “LD50 relative to the immunologically effective dose” value ([3]; intravenous administration) of the same compound?
A: 500-1000 folds

Q: What about the “inhibition of cysteine proteases” value (cysteine proteases) of the same compound?
A: inhibits cysteine proteases

Q: What about the “IL-1β level in septic mice” value (IL-1β; [10]) of the same compound?
A: significantly inhibited

Q: What about the “IL-1β level in septic mice” value (IL-1β; [11]) of the same compound?
A: significantly inhibited

Q: And the “SAC-induced secretion levels of IL-1β” value ([4]; AS101 1 hour before SAC 10^-3 v/v, after 24 hours, FIG. 2b)?
A: decrease SAC-induced secretion levels

Q: And the “concentration from which the decrease in IL-1β secretion is significant (p<0.05)” value ([4]; SAC, 24 hours)?
A: ≥ 0.5 µg/mL

Q: And the “amounts of the active form of IL-18” value ([5]; then LPS 50 ng/ml)?
A: produced a decrease in the amounts of the active form of IL-18

Q: What about the “amounts of the active form of IL-18” value ([5]; then PMA 10 ng/ml) of the same compound?
A: produced a decrease in the amounts of the active form of IL-18

Q: And the “induction of IL-18 production by AS101 treatment” value [6]?
A: not able to induce IL-18 production

Q: What about the “viability at the end of the experiments” value (PBMC) of the same compound?
A: > 95%

Q: What about the “IL-18 mRNA levels” value ([7]; then LPS 50 ng/ml) of the same compound?
A: Changes in mRNA levels were not detected

Q: What about the “IL-18 mRNA levels” value ([7]; then PMA 10 ng/ml) of the same compound?
A: Changes in mRNA levels were not detected

Q: What about the “inhibition of serine proteases” value (serine proteases) of the same compound?
A: no inhibition

Q: And the “inhibition of aspartic proteases” value (aspartic proteases)?
A: no inhibition

Q: What about the “inhibition of metallo proteases” value (metallo proteases) of the same compound?
A: no inhibition

Q: And the “effect on survival of septic mice” value (LPS-induced septic mice; AS101 10 μg/mouse i.p. daily, injected after LPS 0.35 mg/mouse, survival monitored 9 days, FIG. 8)?
A: beneficial effect

Q: And the “optimal dose for survival” value (LPS-induced septic mice; injected 6 hours following LPS and thereafter every day)?
A: 10 μg/mouse

Q: And the “IL-18 level in septic mice” value (IL-18; [10])?
A: significantly inhibited

Q: What about the “IL-18 level in septic mice” value (IL-18; [11]) of the same compound?
A: significantly inhibited

Q: What about the “inhibitory effect on IL-18 secretion in the presence of NOS inhibitor L-NAME” value [8] of the same compound?
A: not diminished

Q: And the “effect on ICE activity (percent residual enzymatic activity)” value [9]?
A: inhibits ICE activity directly, in a concentration-dependant manner
